From patent US6844183B2, “Antibiotics RK-1061 and process for preparing the same” (Daiichi Pharmaceutical Co., Ltd., priority 1996, dated 2005)

Experiments:
[1] = system: Candida albicans IFO 5994; assay: paper disk test, Candida albicans IFO 5994; type: cell-based; settings: 20 μg/disc
Protocol: (§1) Methanol solution of each tested substance with specific concentration was sunk on a paper disk with diameter of 8 mm (Thick, Toyo-roshi) and dried, which was placed on a plate of each bacterium. After culture under the conditions suitable for each bacterium, the diameter of cell growth was measured, The results are shown in Table 4, 5 and 6.

[2] = system: Escherichia coli AB 1157; assay: paper disk antibacterial test, Escherichia coli AB 1157; type: cell-based; settings: 20 μg/disc
Protocol: as §1

[3] = system: peptidoglycan synthesis; assay: inhibitory activity on peptidoglycan synthesis (crude enzyme, UDP-[3H]GlcNAc incorporation); type: biochemical, Escherichia coli; settings: 0.1 μg/ml
Protocol: Crude enzyme and substrate UDP-MurNAc-pentapeptide were prepared from Escherichia coli and Bacillus subtilis respectively according to a reference (J. Biol. Chem., 243, 3180 (1968)). Enzymatic reaction was carried out by mixing 5 μl of 1M Tris-HCl (pH 7.5), 10 μl of 0.1M MgCl2, 5 μl of 2 mM UDP-MurNAc-pentapeptide, 5 μl of enzyme solution(15 mg/ml protein concentration), 5 μl of sample, 5 μl of UDP-[U-^3H]GlcNAc (10 μCi/ml, 25.8 Ci/mmol., Du'pont) and 15 μl of water at 37° C. for 60 minutes and […]. After ice-cooling, it was trapped on a GF/C glass filter(2.4 cm, Whatman). And after adding scintillator thereto, radiation thereof was counted. Inhibitory % was calculated by comparing the count of control.

[4] = system: Bacillus subtilis IFO 3513; assay: paper disk antibacterial test, Bacillus subtilis IFO 3513; type: cell-based; settings: 20 μg/disc; for the diameter of cell growth inhibition zone: ( ) represents partial inhibition
Protocol: as §1

[5] = system: BALB/3T3 cells; assay: cytotoxicity test (MTT); type: cell-based; settings: 3 days culture
Protocol: BALB/3T3 cells (100 μl) were inoculated into 10% FBS added DMEM medium (Gibco) in 96 well plate so as to be 1×10^5 cells/ml under 5% CO2 at 37° C., which was cultured overnight. The test substance dissolved in methanol was added thereto, which was cultured for more 3 days and further kept cultured for 4 hours after adding 10 μl of 2.5 mg/ml MTT reagent (Sigma). After removing supernatant, 100 μl of DMSO was added thereto and kept it overnight. The absorbance thereof at 540 nm was determined to detect viable cells.

[6] = system: Mycobacterium phlei IFO 3158; assay: paper disk antibacterial test, Mycobacterium phlei; type: cell-based; settings: for The diameter of cell growth inhibition zone against M. Phlei: 2 μg/disc; for the diameter of cell growth inhibition zone: Mycobacterium phlei IFO 3158, 20 μg/disc
Protocol: as §1

[7] = system: Staphylococcus aureus IFO 12732; assay: paper disk antibacterial test, Staphylococcus aureus IFO 12732; type: cell-based; settings: 20 μg/disc
Protocol: as §1

[8] = system: Escherichia coli BE 1186; assay: paper disk antibacterial test, Escherichia coli BE 1186; type: cell-based; settings: 20 μg/disc, ( ) represents partial inhibition
Protocol: as §1

Row | Molecule | the diameter of cell growth inhibition zone [1] | the diameter of cell growth inhibition zone [2] | Inhibitory activity on peptidoglycan synthesis [3] | the diameter of cell growth inhibition zone [4] | Cytotoxicity against BALB/3T3 (IC50) [5] | The diameter of cell growth inhibition zone against M. Phlei ([6]; Table 5) | The diameter of cell growth inhibition zone against M. Phlei ([6]; Table 6) | the diameter of cell growth inhibition zone [6] | the diameter of cell growth inhibition zone [7] | the diameter of cell growth inhibition zone [8] | the diameter of cell growth inhibition zone, partial inhibition (value in brackets) [4]
1 | CCCCCC=CCC=CCCCC(CC(=O)OC1CN(C)C(C(OC2OC(CN)C(O)C2OS(=O)(=O)O)C2OC(n3ccc(=O)[nH]c3=O)C(O)C2O)C(=O)N(C)C1C(=O)O)OC(=O)CC(C)CC(=O)O (centres unmarked) [Liposidomycins A, reference compound] | 0 mm | 0 mm | 95% | 0 mm | >25 µg/mL | 0 mm | 0 mm | 18.9 mm | 0 mm | – | –
2 | CCCCCC=CCC=CCCCC(CC(=O)OC1CN(C)C(C(OC2OC(CN)C(O)C2O)C2OC(n3ccc(=O)[nH]c3=O)C(O)C2O)C(=O)N(C)C1C(=O)O)OC(=O)CC(C)CC(=O)O (centres unmarked) [Liposidomycins A-(III)] | 0 mm | 0 mm | 96% | 21.0 mm | >25 µg/mL | 11.62 mm | 14.3^− mm | 24.8 mm | 0 mm | 17.8 mm | –
3 | CCCCCCCCCCCC(CC(=O)OC1CN(C)C(C(OC2OC(CN)C(O)C2OS(=O)(=O)O)C2OC(n3ccc(=O)[nH]c3=O)C(O)C2O)C(=O)N(C)C1C(=O)O)OC(=O)CC(C)CC(=O)O (centres unmarked) [Liposidomycins C, reference compound] | 0 mm | 0 mm | – | 0 mm | – | 0 mm | – | 22.1 mm | 0 mm | 0 mm | –
4 | CCCCCCCCCCCC(CC(=O)OC1CN(C)C(C(OC2OC(CN)C(O)C2O)C2OC(n3ccc(=O)[nH]c3=O)C(O)C2O)C(=O)N(C)C1C(=O)O)OC(=O)CC(C)CC(=O)O (centres unmarked) [Liposidomycins C-(III)] | 0 mm | 0 mm | – | 17.8 mm | – | 16.21 mm | – | 30.3 mm | 0 mm | 14.3 mm | (23.7) mm
5 | CCCCCCCCC=CCCCC(CC(=O)OC1CN(C)C(C(OC2OC(CN)C(O)C2O)C2OC(n3ccc(=O)[nH]c3=O)C(O)C2O)C(=O)N(C)C1C(=O)O)OC(=O)CC(C)CC(=O)O (centres unmarked) [Liposidomycins G-(III)] | – | – | – | – | – | 16.68 mm | – | – | – | – | –
6 | CCCCCC=CCC=CCCCCCC(CC(=O)OC1CN(C)C(C(OC2OC(CN)C(O)C2O)C2OC(n3ccc(=O)[nH]c3=O)C(O)C2O)C(=O)N(C)C1C(=O)O)OC(=O)CC(C)CC(=O)O (centres unmarked) [Liposidomycins K-(III)] | 0 mm | 0 mm | – | 13.0 mm | – | 12.27 mm | – | 23.3 mm | 0 mm | 13.5 mm | –
7 | CCCCCC=CCC=CCCCCCC(CC(=O)OC1CN(C)C(C(OC2OC(CN)C(O)C2OS(=O)(=O)O)C2OC(n3ccc(=O)[nH]c3=O)C(O)C2O)C(=O)N(C)C1C(=O)O)OC(=O)CC(C)CC(=O)O (centres unmarked) [Liposidomycins K] | 0 mm | 0 mm | – | – | – | 13.15 mm | – | 28.6 mm | 0 mm | – | –
8 | CC(C)CCCCCCCCCCC(CC(=O)OC1CN(C)C(C(OC2OC(CN)C(O)C2OS(=O)(=O)O)C2OC(n3ccc(=O)[nH]c3=O)C(O)C2O)C(=O)N(C)C1C(=O)O)OC(=O)CC(C)CC(=O)O (centres unmarked) [Liposidomycins L] | – | – | – | – | – | 14.08 mm | – | – | – | – | –
9 | CCCCCCCCCCCCCC(CC(=O)OC1CN(C)C(C(OC2OC(CN)C(O)C2O)C2OC(n3ccc(=O)[nH]c3=O)C(O)C2O)C(=O)N(C)C1C(=O)O)OC(=O)CC(C)CC(=O)O (centres unmarked) [Liposidomycins M-(III)] | 0 mm | 0 mm | – | 14.8 mm | – | 15.49 mm | – | 25.7 mm | 0 mm | – | –
10 | CCCCCCCCCCCCCC(CC(=O)OC1CN(C)C(C(OC2OC(CN)C(O)C2OS(=O)(=O)O)C2OC(n3ccc(=O)[nH]c3=O)C(O)C2O)C(=O)N(C)C1C(=O)O)OC(=O)CC(C)CC(=O)O (centres unmarked) [Liposidomycins M] | 0 mm | 0 mm | – | 9.7 mm | – | 16.86 mm | – | 27.2 mm | 0 mm | 0 mm | (13.0) mm
11 | CCCCCC=CCC=CCC(CC(=O)OC1CN(C)C(C(OC2OC(CN)C(O)C2O)C2OC(n3ccc(=O)[nH]c3=O)C(O)C2O)C(=O)N(C)C1C(=O)O)OC(=O)CC(C)CC(=O)O (centres unmarked) [Liposidomycins Y-(III)] | – | – | – | – | – | 0 mm | – | – | – | – | –
12 | CCCCCCCCC=CCC(CC(=O)OC1CN(C)C(C(OC2OC(CN)C(O)C2O)C2OC(n3ccc(=O)[nH]c3=O)C(O)C2O)C(=O)N(C)C1C(=O)O)OC(=O)CC(C)CC(=O)O (centres unmarked) [Liposidomycins Z-(III)] | 0 mm | 0 mm | – | 22.2 mm | – | 13.74 mm | – | 26.3 mm | 0 mm | 18.8 mm | –
13 | CCCCCCCCC=CCC(CC(=O)OC1CN(C)C(C(OC2OC(CN)C(O)C2OS(=O)(=O)O)C2OC(n3ccc(=O)[nH]c3=O)C(O)C2O)C(=O)N(C)C1C(=O)O)OC(=O)CC(C)CC(=O)O (centres unmarked) [Liposidomycins Z] | 0 mm | 0 mm | – | 0 mm | – | 0 mm | – | – | 0 mm | – | –
14 | Tunicamycin [TM] | – | – | 10% | – | 0.05 µg/mL | – | – | – | – | – | –
